The values that follow come from ChEMBL document CHEMBL4002573, “New insights into the SAR and drug combination synergy of 2-(quinolin-4-yloxy)acetamides against Mycobacterium tuberculosis” (Eur J Med Chem, 2017).

In brackets after ≈: the same amount, converted by molar mass.

Data set [1] deals with Mycobacterium tuberculosis. Description: microbe, parasite or virus in culture. The following applies: H37Rv, 168 h.
Description: Antimycobacterial activity against Mycobacterium tuberculosis H37Rv after 7 days by resazurin reduction microplate assay
A short description of data set [2]: Cytotoxicity against African green monkey Vero cells assessed as viability at 10 uM after 72 hrs by MTT assay relative to control. It counts as cell-based. The note with it: chlorocebus sabaeus, read-out: Activity.
The nature of data set [3]: Cytotoxicity against human HaCaT cells assessed as viability at 10 uM after 72 hrs by MTT assay relative to control. The following applies: read-out: Activity. It counts as cell-based.
A short description of data set [4]: Cytotoxicity against mouse RAW264.7 cells assessed as viability at 10 uM after 72 hrs by MTT assay relative to control. It counts as cell-based. The following applies: read-out: Activity. Background: Formazan colour is commonly taken as a measure of viable cells.
Data set [5] can be described thus: Thermodynamic solubility of the compound in acetate buffer at pH 4 after 24 hrs by HPLC method. It counts as physicochemical. The note with it: read-out: Therm_solubility.
Data set [6] relates to Mycobacterium tuberculosis. Description: microbe, parasite or virus in culture. The following applies: CDCT-4 (1105/09), 168 h.
Description: Antimycobacterial activity against Mycobacterium tuberculosis CDCT-4 (1105/09) clinical isolate after 7 days by resazurin reduction microplate assay
A short description of data set [7]: Cytotoxicity against mouse N9 cells assessed as viability at 10 uM after 72 hrs by MTT assay relative to control. It counts as cell-based. The note with it: read-out: Activity.
The nature of data set [8]: Kinetic solubility in water at pH 5.8. The following applies: read-out: Kinetic_solubility. It counts as physicochemical.
Data set [9] in a line: Thermodynamic solubility of the compound in 0.1N HCl at pH 1.5 after 24 hrs by HPLC method. It counts as physicochemical. The note with it: read-out: Therm_solubility.
The nature of data set [10]: Kinetic solubility in PBS at pH 7.4. It counts as physicochemical. The note with it: read-out: Kinetic_solubility.
The nature of data set [11]: Intrinsic clearance in human liver S9 fraction at 2 uM by HPLC-MS/MS analysis. It counts as ADME, tissue-based.
Data set [12] relates to Mycobacterium tuberculosis. Description: microbe, parasite or virus in culture. The note with it: PE-003, 168 h.
Description: Antimycobacterial activity against Mycobacterium tuberculosis PE-003 clinical isolate after 7 days by resazurin reduction microplate assay
In data set [13] the test system is Mycobacterium tuberculosis. As to the kind of experiment: Bactericidal activity against Mycobacterium tuberculosis H37Rv infected in mouse RAW264.7 cells assessed as bacterial colony formation at 5 uM after 5 days (reference value: 4.1 to 4.73 log10CU). It counts as functional.
A short description of data set [14]: Cytotoxicity against human HepG2 cells assessed as viability at 10 uM after 72 hrs by MTT assay relative to control. It counts as cell-based. The following applies: read-out: Activity.
Data set [15] can be described thus: Half life in human liver S9 fraction at 2 uM by HPLC-MS/MS analysis. It counts as ADME, tissue-based.
A short description of data set [16]: Permeability of the compound at 1 uM […] by PAMPA. The note with it: read-out: permeability. It counts as physicochemical. For orientation: PAMPA measures passive passage across an artificial lipid membrane.

`COc1ccc2nc(C)cc(NCC(=O)Nc3ccccc3OC)c2c1`: in data set [1], the MIC was greater than 28.5 µM.

With `COc1ccc2nc(C)cc(OCC(=O)Nc3cccc4c3CCCC4)c2c1`, the MIC in data set [1] amounted to 0.83 µM.

Compound `COc1ccccc1NC(=O)COc1cc(C)nc2ccc(F)cc12` registered an MIC in data set [1] of 14.7 µM.

With `COc1ccccc1NC(=O)COc1cc(C)nc2ccc(Br)cc12`, in data set [1], the MIC is 0.78 µM.

`COc1ccc2nc(C)cc(OCC(=O)N3CCCCC3)c2c1` came in with an MIC in [1] greater than 31.8 µM.

In data set [1], `CCCc1cc(OCC(=O)Nc2ccccc2OC)c2cc(OC)ccc2n1` showed an MIC greater than 26.3 µM.

On to `COc1ccc2nc(C)cc(OCC(=O)Nc3ccc4c(c3)CCCC4)c2c1`, for which the viability at 72 h, 10 µM in [2] came out at 94%; in data set [3], 95%; in data set [4], 82%; in [7], 103%; in data set [14], 85%. The values for the solubility thermodynamic at 24 h in data set [5] and in [9] were 30 µM (≈ 11.3 µg/mL) and 90 µM (≈ 33.9 µg/mL), respectively. Further, the MIC in data set [1] worked out at 0.05 µM; in [6] it was 0.11 µM (≈ 0.0414 µg/mL); in data set [12], 0.008 µM (≈ 0.00301 µg/mL). Further, the solubility kinetic in data set [8] is 6.6 µM (≈ 2.48 µg/mL); in [10], 1.2 µM (≈ 0.452 µg/mL). In [11], the CLhep predicted at 2 µM was 0.936 L/h/kg. In [13], the Activity came to 3.33 log10CFU. In addition, in [15], the half-life (as a rule, the time needed for the level to fall by half in the phase considered) at 2 µM turned out to be 16.2 min.

`COc1ccc2nc(C)cc(OCC(=O)N[C@@H]3CCCc4ccccc43)c2c1`: in [1], the MIC worked out at 13.3 µM.

For `CN[C@@H]1[C@H](O[C@H]2[C@H](O[C@H]3[C@H](O)[C@@H](O)[C@H](N=C(N)N)[C@@H](O)[C@@H]3N=C(N)N)O[C@@H](C)[C@]2(O)C=O)O[C@@H](CO)[C@H](O)[C@H]1O` [STREPTOMYCIN], the MIC in data set [1] amounted to 0.31 mg/L.

Compound `COc1ccc2nc(C)cc(OCC(=O)N(c3ccccc3)c3ccccc3)c2c1` yielded an MIC in data set [1] greater than 25.1 µM.

In turn, `COc1c(N2C[C@@H]3CCCN[C@@H]3C2)c(F)cc2c(=O)c(C(=O)O)cn(C3CC3)c12` [MOXIFLOXACIN] had an MIC in [1] of 0.075 mg/L.

Regarding `COc1ccc2nc(C(C)C)cc(OCC(=O)Nc3ccccc3OC)c2c1`, the MIC in data set [1] was greater than 26.3 µM.

`COc1ccc2nc(C)cc(OCc3ccc4ccccc4c3)c2c1` registered an MIC in [1] of 1.9 µM.

Turning to `NNC(=O)c1ccncc1` [ISONIAZID], the MIC in data set [1] is 0.16 to 1.46 µM; in data set [6], greater than 70 µM; in [12] it was greater than 70 µM. The Activity in data set [13] was determined as 2.44 log10CFU.

For `CO[C@H]1/C=C/O[C@@]2(C)Oc3c(C)c(O)c4c(O)c(c(/C=N/N5CCN(C)CC5)c(O)c4c3C2=O)NC(=O)/C(C)=C\C=C\[C@H](C)[C@H](O)[C@@H](C)[C@@H](O)[C@@H](C)[C@H](OC(C)=O)[C@@H]1C` [RIFAMPIN], the MIC in [1] is 0.038 mg/L; in data set [6], greater than 100 µM. Besides, the Activity in data set [13] is 2.44 log10CFU.

As to `COc1ccccc1NC(=O)COc1cc(C)nc2ccc(Cl)cc12`, in [1], the MIC was 1.75 µM.

As for `CCc1cc(OCC(=O)Nc2ccccc2OC)c2cc(OC)ccc2n1`, the MIC in [1] amounted to 0.86 µM.

In the case of `COc1ccc2nc(C)cc(OCC(=O)Nc3ccc(C)c(C)c3)c2c1`, the viability at 72 h, 10 µM in [2] turned out to be 85%; in [3] it was 94%; in data set [4] it was 88%; in data set [7], 105%; in data set [14] it was 71%. Besides, the Papp at 1 µM in data set [16] was found to be 59 nm/s. The solubility thermodynamic at 24 h stood at 410 µM (≈ 144 µg/mL) in [5] and 80 µM (≈ 28 µg/mL) in [9]. The MIC in data set [1] came out at 0.11 µM; in data set [6], 0.11 µM (≈ 0.0385 µg/mL); in data set [12] it was 0.04 µM (≈ 0.014 µg/mL). The solubility kinetic in data set [8] is 10.4 µM (≈ 3.64 µg/mL); in data set [10], 10.7 µM (≈ 3.75 µg/mL). Also, the CLhep predicted at 2 µM in data set [11] is 0.972 L/h/kg. For the same compound, the Activity in data set [13] stood at 3.35 log10CFU. The same compound displayed a half-life at 2 µM in data set [15] of 14.2 min.

Consider `CCCCc1ccc(NC(=O)COc2cc(C)nc3ccc(OC)cc23)cc1`, for which the viability at 72 h, 10 µM was 90% in [2]; 105% in data set [3]; 91% in data set [4]; 107% in data set [7]; 78% in data set [14]. Also, the figures for the solubility thermodynamic at 24 h in [5] and in data set [9] were 50 µM (≈ 18.9 µg/mL) and 240 µM (≈ 90.8 µg/mL), respectively. Also, the MIC in data set [1] was 0.1 µM; in data set [6] it was less than 0.05 µM; in data set [12], 0.008 µM (≈ 0.00303 µg/mL). Also, the solubility kinetic in data set [8] was determined as 2.2 µM (≈ 0.833 µg/mL); in data set [10], 2.3 µM (≈ 0.87 µg/mL). The CLhep predicted at 2 µM in data set [11] is 0.978 L/h/kg. In data set [13], the Activity is reported as 3.05 log10CFU. In [15], this compound displayed a half-life at 2 µM of 13.7 min.

With `COc1ccc2nc(C)cc(NCC(=O)Nc3ccc4ccccc4c3)c2c1`, in [1], the MIC amounted to 6.73 µM.

For `COc1ccc2nc(C)cc(OCC(=O)Nc3ccc4c(c3)CCC4)c2c1`, the viability at 72 h, 10 µM in [2] was determined as 97%; in data set [3], 99%; in data set [4], 88%; in data set [7], 111%; in [14], 95%. Also, the Papp at 1 µM in [16] came to 131 nm/s. The solubility thermodynamic at 24 h in data set [5] turned out to be 120 µM (≈ 43.5 µg/mL); in data set [9] it was 240 µM (≈ 87 µg/mL). For the same compound, the MIC is 0.05 µM in data set [1], less than 0.05 µM in data set [6] and 0.005 µM (≈ 0.00181 µg/mL) in data set [12]. In addition, the solubility kinetic in data set [8] and in data set [10] was 2.8 µM (≈ 1.01 µg/mL) throughout. In data set [11], the CLhep predicted at 2 µM is 1.01 L/h/kg. Further, the Activity in [13] is 3.54 log10CFU. The half-life at 2 µM in data set [15] came to 11.7 min.

Regarding `CCc1ccc(NC(=O)COc2cc(C)nc3ccc(OC)cc23)cc1`, the viability at 72 h, 10 µM in data set [2] came to 80%; in data set [3], 96%; in [4] it was 91%; in [7], 112%; in data set [14], 75%. The figures for the solubility thermodynamic at 24 h in [5] and in data set [9] were 430 µM (≈ 151 µg/mL) and 790 µM (≈ 277 µg/mL), respectively. Further, the figures for the MIC in data set [1], in data set [6] and in data set [12] were 0.06 µM, less than 0.06 µM and 0.006 µM (≈ 0.0021 µg/mL), respectively. The solubility kinetic in data set [8] worked out at 5.2 µM (≈ 1.82 µg/mL); in data set [10], 3.8 µM (≈ 1.33 µg/mL). Moreover, the CLhep predicted at 2 µM in data set [11] was 0.996 L/h/kg. Moreover, the Activity in [13] came to 2.81 log10CFU. The compound further returned a half-life at 2 µM in [15] of 12.8 min.

On to `COc1ccccc1NC(=O)COc1cc(C)nc2ccc(C(F)(F)F)cc12`, for which the MIC in data set [1] is greater than 25.6 µM.

In the case of `COc1ccc2nc(C)cc(OCC(=O)c3ccc4ccccc4c3)c2c1`, in data set [1], the MIC came out at 1.75 µM.

On to `COc1ccc2nc(C)c(Cc3ccccc3)c(OCC(=O)Nc3ccccc3OC)c2c1`, for which, in [1], the MIC was greater than 22.6 µM.

In the case of `CCOc1ccc2nc(C)cc(OCC(=O)Nc3ccccc3OC)c2c1`, the MIC in data set [1] was 1.75 µM.

Take `CCc1cc(C(N)=S)ccn1` [ETHIONAMIDE]: the MIC in data set [1] turned out to be 2.5 mg/L; in data set [6], 11.3 µM (≈ 1.88 µg/mL); in data set [12] it was 61.2 µM (≈ 10.2 µg/mL).

As to `COc1ccc2nc(C)cc(OCC(=O)N(C)c3ccccc3OC)c2c1`, in [1], the MIC is greater than 27.3 µM.

Regarding `COc1ccc2nc(C)cc(OCC(=O)N[C@H]3CCCc4ccccc43)c2c1`, the MIC in data set [1] was found to be 1.66 µM.

The compound `CC[C@@H](CO)NCCN[C@@H](CC)CO` [ETHAMBUTOL] had an MIC in data set [1] of 2.5 to 5 mg/L.
